These results are taken from patent publication US20260256925A1, “INDAZOLE DERIVATIVES AS ESTROGEN RECEPTOR DEGRADERS” (REGENTS OF THE UNIVERSITY OF MICHIGAN, priority 2022, published 2026).

Bounds are passed on as bounds.

Assay [1] is described as follows: Cell growth assay, WST-8 (compounds B1-B126). It is filed as cell-based. The conditions noted are these: 96 h; T47D cell line, WST-8, 4 days; read-out: Cell growth inhibition in T47D cell line IC50. The method in brief:
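Cells seeded at 1500/well overnight, treated one day later with compound doses for 4 days, then 10% WST-8 added for 2.5 h at 37° C in CO2. Absorbance at 450 nm, expressed relative to vehicle control over three independent repeats.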

For another assay, the target named is T1, ER (Homo sapiens, UniProt P03372).
T1 construct: endogenous in cells; probably T47D or MCF-7
T1 sequence (P03372 1-595): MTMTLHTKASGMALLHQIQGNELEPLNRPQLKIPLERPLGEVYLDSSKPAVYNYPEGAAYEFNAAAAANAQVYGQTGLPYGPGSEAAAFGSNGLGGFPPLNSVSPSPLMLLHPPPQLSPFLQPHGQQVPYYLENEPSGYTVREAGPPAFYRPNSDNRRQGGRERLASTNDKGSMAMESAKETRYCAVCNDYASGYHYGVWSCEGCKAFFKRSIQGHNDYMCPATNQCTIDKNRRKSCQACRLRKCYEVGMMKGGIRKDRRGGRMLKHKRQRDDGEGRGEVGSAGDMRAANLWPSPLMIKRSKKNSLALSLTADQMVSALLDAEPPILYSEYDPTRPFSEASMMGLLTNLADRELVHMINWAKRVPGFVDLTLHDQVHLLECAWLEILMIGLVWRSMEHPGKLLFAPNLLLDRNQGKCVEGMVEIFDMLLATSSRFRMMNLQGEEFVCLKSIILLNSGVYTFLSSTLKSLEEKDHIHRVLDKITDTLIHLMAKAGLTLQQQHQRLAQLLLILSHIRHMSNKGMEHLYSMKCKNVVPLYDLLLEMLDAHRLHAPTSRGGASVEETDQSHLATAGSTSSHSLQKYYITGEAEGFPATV
Briefly: In-cell western blot analysis, relative ER percentage (compounds B1-B126). The class given is cell-based. The conditions noted are these: ER degradation, 16 hours, read-out: ICW DC50. Summed up:
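Cells seeded at 40,000 or 10,000 per well overnight were treated with compound (final 0.5% DMSO) for 16 hours, then fixed with formaldehyde. ER was detected with primary antibodies and anti-rabbit-680/anti-mouse-800 secondaries on a CLX reader. Signal is expressed relative to untreated and DMSO wells set as 100%.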

Take `C[C@@H]1Cc2c(ccc3[nH]ncc23)[C@@H](c2c(F)cc(N3CCC(CN4CC(N5CCN6c7cc8c(cc7OC[C@@H]6C5)C(=O)N(C5CCC(=O)NC5=O)C8)C4)CC3)cc2F)N1CC(F)F` (stereo partly drawn) [Compound B46, 3-((S)-3-(1-((1-(4-((6S,8R)-7-(2,2-difluoroethyl)-8-methyl-6,7,8,9-tetrahydro-3H-pyrazolo[4,3-f]isoquinolin-6-yl)-3,5-difluorophenyl)piperidin-4-yl)methyl)azetidin-3-yl)-8-oxo-1,2,3,4,4a,5,8,10-octahydro-9H-pyrazino[1′,2′:4,5][1,4]oxazino[2,3-f]isoindol-9-yl)piperidine-2,6-dione]: the IC50 (as a rule, the midpoint of a concentration-inhibition curve) in assay [1] was under 1 nM. Further, the DC50 (commonly the midpoint of the concentration-degradation curve) at ER was under 10 nM.

On to `C[C@@H]1Cc2c(ccc3[nH]ncc23)[C@@H](c2c(F)cc(N3CCN(C(=O)CN4CCN5c6cc7c(cc6OC[C@@H]5C4)C(=O)N(C4CCC(=O)NC4=O)C7)CC3)cc2F)N1CC(F)F` (stereo partly shown) [Compound B31], for which the IC50 in assay [1] is under 1 nM. In addition, the DC50 at ER fell in the range of 10 to 100 nM.

For `C[C@@H]1Cc2c(ccc3[nH]ncc23)[C@@H](c2ccc(N3CCC4(CC3)CC(CN3CCN5c6ccc(C(=O)N[C@H]7CCC(=O)NC7=O)nc6OC[C@H]5C3)C4)cn2)N1CC(F)(F)F` [Compound B89, (R)-N-((S)-2,6-dioxopiperidin-3-yl)-3-((7-(6-((6S,8R)-8-methyl-7-(2,2,2-trifluoroethyl)-6,7,8,9-tetrahydro-3H-pyrazolo[4,3-f]isoquinolin-6-yl)pyridin-3-yl)-7-azaspiro[3.5]nonan-2-yl)methyl)-1,2,3,4,4a,5-hexahydropyrazino[1,2-d]pyrido[2,3-b][1,4]oxazine-8-carboxamide], the IC50 in assay [1] is over 10 nM. In addition, the half-maximal degradation concentration (DC50) on ER is over 100 nM.

Consider `C[C@H]1Cc2c(ccc3[nH]ncc23)[C@H](c2ccc(N3CC4(CCC(CN5CCN6c7ccc8c(c7OC[C@@H]6C5)CN([C@@H]5CCC(=O)NC5=O)C8=O)CC4)C3)cn2)N1CC(F)(F)F` [Compound B124, (R)-3-((S)-7-((2-(6-((6R,8S)-8-methyl-7-(2,2,2-trifluoroethyl)-6,7,8,9-tetrahydro-3H-pyrazolo[4,3-f]isoquinolin-6-yl)pyridin-3-yl)-2-azaspiro[3.5]nonan-7-yl)methyl)-1-oxo-1,3,5,5a,6,7,8,9-octahydro-2H-pyrazino[1′,2′:4,5][1,4]oxazino[2,3-e]isoindol-2-yl)piperidine-2,6-dione], for which the IC50 in assay [1] was under 1 nM. Besides, the DC50 at ER is under 10 nM.

As to `C[C@@H]1Cc2c(ccc3[nH]ncc23)[C@@H](c2c(F)cc(NC3CN(CC(=O)N4CCN5c6cc7c(cc6OC[C@@H]5C4)C(=O)N(C4CCC(=O)NC4=O)C7)C3)cc2F)N1CC(F)F` (stereo partly shown) [Compound B27], in assay [1], the IC50 is under 1 nM. Further, the DC50 on ER lay in the range of 10 to 100 nM.

In the case of `C[C@@H]1Cc2c(ccc3[nH]ncc23)[C@@H](c2ccc(N3CCC4(CC3)CC(CN3CCN5c6cc7c(cc6OC[C@@H]5C3)C(=O)N(C3CCC(=O)NC3=O)C7)C4)cn2)N1CC(F)(F)F` (stereo partly drawn) [Compound B77, 3-((S)-3-((7-(6-((6S,8R)-8-methyl-7-(2,2,2-trifluoroethyl)-6,7,8,9-tetrahydro-3H-pyrazolo[4,3-f]isoquinolin-6-yl)pyridin-3-yl)-7-azaspiro[3.5]nonan-2-yl)methyl)-8-oxo-1,2,3,4,4a,5,8,10-octahydro-9H-pyrazino[1′,2′:4,5][1,4]oxazino[2,3-f]isoindol-9-yl)piperidine-2,6-dione], the IC50 in assay [1] fell in the range of 1 to 10 nM. Moreover, the DC50 at ER was 10 to 100 nM.

With `C[C@@H]1Cc2c(ccc3[nH]ncc23)[C@@H](c2ccc(N3CC4(CCC(CN5CCN6c7c(ccc8c7CN(C7CCC(=O)NC7=O)C8=O)OC[C@@H]6C5)CC4)C3)cn2)N1CC(F)(F)F` (stereo partly drawn) [Compound B110, 3-((S)-9-((2-(6-((6S,8R)-8-methyl-7-(2,2,2-trifluoroethyl)-6,7,8,9-tetrahydro-3H-pyrazolo[4,3-f]isoquinolin-6-yl)pyridin-3-yl)-2-azaspiro[3.5]nonan-7-yl)methyl)-3-oxo-1,3,7,7a,8,9,10,11-octahydro-2H-pyrazino[1′,2′:4,5][1,4]oxazino[3,2-e]isoindol-2-yl)piperidine-2,6-dione], the IC50 in assay [1] lay in the range of 1 to 10 nM. Also, at ER, the DC50 was over 100 nM.

For `C[C@@H]1Cc2c(ccc3[nH]ncc23)[C@@H](c2ccc(N3CCC4(CC3)CC(CN3CCN5c6ccc7c(c6OC[C@H]5C3)CN(C3CCC(=O)NC3=O)C7=O)CO4)cn2)N1CC(F)(F)F` (stereo partly drawn) [Compound B91, 3-((5aR)-7-((8-(6-((6S,8R)-8-methyl-7-(2,2,2-trifluoroethyl)-6,7,8,9-tetrahydro-3H-pyrazolo[4,3-f]isoquinolin-6-yl)pyridin-3-yl)-1-oxa-8-azaspiro[4.5]decan-3-yl)methyl)-1-oxo-1,3,5,5a,6,7,8,9-octahydro-2H-pyrazino[1′,2′:4,5][1,4]oxazino[2,3-e]isoindol-2-yl)piperidine-2,6-dione], the IC50 in assay [1] fell in the range of 1 to 10 nM. Also, the DC50 at ER is under 10 nM.

Turning to `C[C@@H]1Cc2c(ccc3[nH]ncc23)[C@@H](c2ccc(N3CCC(CN4CCC5(CC4)COc4c5ccc5c4CN(C4CCC(=O)NC4=O)C5=O)CC3)cn2)N1CC(F)(F)F` (stereo partly drawn) [Compound B62, 3-(1′-((1-(6-((6S,8R)-8-methyl-7-(2,2,2-trifluoroethyl)-6,7,8,9-tetrahydro-3H-pyrazolo[4,3-f]isoquinolin-6-yl)pyridin-3-yl)piperidin-4-yl)methyl)-6-oxo-6,8-dihydro-2H,7H-spiro[furo[2,3-e]isoindole-3,4′-piperidin]-7-yl)piperidine-2,6-dione], the IC50 in assay [1] is under 1 nM. For the same compound, at ER, the DC50 was over 100 nM.

As for `C[C@@H]1Cc2c(ccc3[nH]ncc23)[C@@H](c2ccc(N3CCC(CN4CCN5c6ccc(C(=O)N[C@H]7CCC(=O)NC7=O)nc6OC[C@H]5C4)CC3)cn2)N1CC(F)(F)F` [Compound B90, (R)-N-((S)-2,6-dioxopiperidin-3-yl)-3-((1-(6-((6S,8R)-8-methyl-7-(2,2,2-trifluoroethyl)-6,7,8,9-tetrahydro-3H-pyrazolo[4,3-f]isoquinolin-6-yl)pyridin-3-yl)piperidin-4-yl)methyl)-1,2,3,4,4a,5-hexahydropyrazino[1,2-d]pyrido[2,3-b][1,4]oxazine-8-carboxamide], the IC50 in assay [1] is 1 to 10 nM. Also, the DC50 at ER was 10 to 100 nM.

For `C[C@@H]1Cc2c(ccc3[nH]ncc23)[C@@H](c2c(F)cc(N3CCN(CC(=O)N4CCN5c6cc7c(cc6OC[C@@H]5C4)C(=O)N(C4CCC(=O)NC4=O)C7)CC3)cc2F)N1CC(F)F` (stereo partly drawn) [Compound B32, 3-((S)-3-(2-(4-(4-((6S,8R)-7-(2,2-difluoroethyl)-8-methyl-6,7,8,9-tetrahydro-3H-pyrazolo[4,3-f]isoquinolin-6-yl)-3,5-difluorophenyl)pipcrazin-1-yl)acetyl)-8-oxo-1,2,3,4,4a,5,8,10-octahydro-9H-pyrazino[1′,2′:4,5][1,4]oxazino[2,3-f]isoindol-9-yl)piperidine-2,6-dione], the IC50 in assay [1] was under 1 nM. The DC50 at ER was under 10 nM.

As for `C[C@@H]1Cc2c(ccc3[nH]ncc23)[C@@H](c2ccc(N3CCC(N4CC(N5CCN6c7cc8c(cc7OC[C@@H]6C5)C(=O)N(C5CCC(=O)NC5=O)C8)C4)CC3)cn2)N1CC(F)(F)F` (stereo partly drawn) [Compound B52, 3-((S)-3-(1-(1-(6-((6S,8R)-8-methyl-7-(2,2,2-trifluoroethyl)-6,7,8,9-tetrahydro-3H-pyrazolo[4,3-f]isoquinolin-6-yl)pyridin-3-yl)piperidin-4-yl)azetidin-3-yl)-8-oxo-1,2,3,4,4a,5,8,10-octahydro-9H-pyrazino[1′,2′:4,5][1,4]oxazino[2,3-f]isoindol-9-yl)piperidine-2,6-dione], the concentration for half-maximal inhibition (IC50) in assay [1] is under 1 nM. Moreover, the DC50 at ER is under 10 nM.

On to `C[C@H]1Cc2c(ccc3[nH]ncc23)[C@H](c2ccc(NC3CN(C(=O)CN4CCN5c6cc7c(cc6OC[C@@H]5C4)C(=O)N(C4CCC(=O)NC4=O)C7)C3)cn2)N1CC(F)(F)F` (stereo partly drawn) [Compound B35, 3-((S)-3-(2-(3-((6-((6R,8S)-8-methyl-7-(2,2,2-trifluoroethyl)-6,7,8,9-tetrahydro-3H-pyrazolo[4,3-f]isoquinolin-6-yl)pyridin-3-yl)amino)azetidin-1-yl)-2-oxoethyl)-8-oxo-1,2,3,4,4a,5,8,10-octahydro-9H-pyrazino[1′,2′:4,5][1,4]oxazino[2,3-f]isoindol-9-yl)piperidine-2,6-dione], for which, in assay [1], the IC50 is over 10 nM. The DC50 on ER fell in the range of 10 to 100 nM.

With `C[C@@H]1Cc2c(ccc3[nH]ncc23)[C@@H](c2ccc(N3CCC4(CC3)CC(CN3CCN5c6c(ccc7c6CN(C6CCC(=O)NC6=O)C7=O)OC[C@@H]5C3)C4)cn2)N1CC(F)(F)F` (stereo partly drawn) [Compound B109, 3-((S)-9-((7-(6-((6S,8R)-8-methyl-7-(2,2,2-trifluoroethyl)-6,7,8,9-tetrahydro-3H-pyrazolo[4,3-f]isoquinolin-6-yl)pyridin-3-yl)-7-azaspiro[3.5]nonan-2-yl)mcthyl)-3-oxo-1,3,7,7a,8,9,10,11-octahydro-2H-pyrazino[1′,2′:4,5][1,4]oxazino[3,2-e]isoindol-2-yl)piperidine-2,6-dione], in assay [1], the IC50 fell in the range of 1 to 10 nM. Besides, the DC50 at ER was over 100 nM.
